One assay relates to HuR in A375 cells. In words: Western blot of nuclear and cytoplasmic fractions for HuR expression, A375. Particulars: for HuR cytoplasmic content: C1 5 mM or 1 mM for 6 days, C2 15 μM 24 h. In kind it is cell-based, human. The text has this: (§1) Some HIV protease inhibitors (such as Nelfinavir) have been used in combination with a BRAF inhibitor to potentiate its effect (Smith et al., 2016, cancer cell, 29(3): 270-284) and some HIV protease inhibitors have (such as Lopinavir) been reported as increasing the cytosolic translocation of HuR (Chen et al., 2009, Biochem Pharmacol., 78(1): 70-77). Further, some polyamine depleting agents i.e. agents reducing the cellular content in polyamines (α-difluoromethylornithine (DFMO), also named Eflornithin) have been reported to modulate cytoplasmic HuR levels (Zou et al., 2006, J. Biol. Chem., 281(28):19387-94). Therefore, a […], Eflornithine (DFMO) and a HIV protease inhibitor, lopinavir ((2S)-N-[(2S,4S,5S)-5-[[2-(2,6-dimethylphenoxy)acetyl]amino]-4-hydroxy-1,6-diphenylhexan-2-yl]-3-methyl-2-(2-oxo-1,3-diazinan-1-yl)butanamide) were tested as comparative examples ((comparative compounds C1 and C2, respectively)) for their ability to increase HuR cytoplasmic localization in melanoma (A375 and the MALME-3M cells (melanoma BRAF mutated sensitive cell lines) cell lines as follows and analysis was conducted by Western blot analysis as described in Example 1 [, except that the cells were treated with comparative compound C1 dissolved in DMSO at 5 mM or at 1 mM for 6 consecutive days, where fresh medium with C1 was added in 6 well plates every day and the cells were split every 3 days or the cells were treated with C2 at 15 μM dissolved in DMSO for 24 h. Cell fractionation was conducted using the NE-PER Nuclear and Cytoplasmic Extraction Reagents (ThermoFisher Scientific) according to the manufacturer's instructions. Nuclear (N) and cytoplasmic (C) fractions were analyzed for HuR expression by western blot as described above. […] As a comparison of successful increase in HuR cytoplasmic content, western blot analysis was performed on cells infected with aG or aH at m.o.i 5, 25 or 125 as described in Example1 (FIG. 8C).
(§2) Western blot analysis was conducted as described in Examples 1 and 5, except that cells were treated with LiCl at 1 mM (for 6 h for A375 and for 24 h for MALME-3M cells) before cell lysis and analysis. […] Considering that HuR is mainly a nuclear protein, the absence of any nuclear contamination in the cytoplasm as observed here fulfils the experimental requirements. The increased cytoplasmic expression of HuR was quantified as being respectively 80% and 50% increased in A375 and Malme 3M melanoma cells using an image quantification software (ImageJ).
Background: Immunoblotting shows a protein as a band on a membrane.

The next assay has as its system HuR in MALME-3M cells. In words: Western blot of nuclear and cytoplasmic fractions for HuR expression, MALME-3M. The following applies: for HuR cytoplasmic content: C1 5 mM or 1 mM for 6 days, C2 15 μM 24 h. The class given is cell-based, human.
Excerpt: as §1, §2

Assay [1] deals with HuR in A375 melanoma cells. The assay can be described thus: Whole cell extract western blot on HuR-expressing adenovirus-infected A375 cells. Particulars: Li 1 mM and 10 mM.
Description: Western blot analysis was performed on cell extracts of A375 cells at 48 h post-infection. Whole cell lysates were prepared using RIPA (radioimmunoprecipitation assay) buffer (PBS (phosphate-buffered saline), 1% NP40 (nonyl phenoxypolyethoxylethanol 40), 0.1% sodium deoxycholate, 0.1% SDS (sodium dodecyl sulphate)) supplemented with fresh protease and phosphatase inhibitors (easy packs tablets, Roche). Cell lysates were quantified for protein content using Bio-Rad DC (detergent compatible) kit. Protein samples were resolved on 12.5% polyacrylamide Bis-Tris gel (Bio-rad) and then transferred to nitrocellulose membrane. After saturation, the membranes were incubated overnight with the anti-HuR mouse monoclonal antibody (Santa-Cruz/3A2-sc-5261, 1:1000) raised against full-length HuR of human origin. The secondary antibody conjugated to horseradish-peroxidase (Bio-Rad goat anti-mouse IgG-HRP, 1:3000) was incubated at room temperature for 30 minutes. Blots were developed using the ECL (enhanced chemiluminescent) system (Thermo-Scientific) according to the manufacturer's instructions.
A further assay deals with A375 cells. In words: WST-1 cell proliferation assay, vemurafenib dose response. In kind it is cell-based. The following applies: for proliferation rate increase (paradoxical proliferation): A375 cells, 48 h. The protocol: The A375 BRAFV600E melanoma cell line was purchased from CLS Cell Lines Service GmbH (Cryovial: 300110). A375 cells were maintained at 37° C. and 5% CO2 in a humidified atmosphere and grown in DMEM (Dulbecco's modified Eagle's medium) growth media supplemented with 10% FBS (fetal bovine serum), 2 mM glutamine, 1% penicillin/streptomycin. Cells were verified to be mycoplasma-free (PanReac Applichem mycoplasma test kit). Cells were treated with the BRAF inhibitor, vemurafenib (Selleckchem), also known as N-[3-[5-(4-chlorophenyl)-1H-pyrrolo[2,3-b]pyridine-3-carbonyl]-2,4-difluorophenyl]propane-1-sulfonamide and dissolved in dimethyl sulphoxide (DMSO, 10 mM storing concentration).
Cell proliferation was measured using WST-1 reagent (Roche applied Science). Melanoma cells were plated (2500 cells per well) in 96-well tissue culture plates. After 24 h, the cells were treated with vemurafenib or DMSO (excipient) at the indicated concentrations in triplicate or quadruplicate. The excipient is used at the same dilution as the one necessary to get the desired concentration of vemurafenib, in that case for example if 1/1000 dilution is necessary to get a 100 nM final concentration of vemurafenib, then the DMSO pure stock solution will be also diluted to 1/1000. For the standard proliferation assays, after the treatment period of 48 h, WST-reagent (20 μl, 10% of the final volume) was added to the wells and incubated at 37° C. for 1 to 2 h depending on the experiment in order to stay within the linear range of the assay. The plates were read at 450(−650) nm on a Vmax kinetic ELISA Microplate Reader (Molecular Devices). Cell proliferation is expressed as percentage of the absorbance compared with the DMSO-treated cells. Proliferation assays for overexpression experiments were scheduled as follows: A375 cells were plated (800000 cells per well) in six-well culture plates. After 24 h, the cells were infected overnight at indicated m.o.i. […]
On the technique in general: Tetrazolium assays rely on reduction of a dye to a coloured formazan, in cell work by metabolically active cells.

The subject of assay [2] is BRAF-mutant colorectal patients. Particulars: BRAF-mutant colorectal patients (Kopetz et al., 2010); cited from earlier work.

We go through 4 molecules from US10772875B2, “Agents enhancing HuR/ELAV protein levels for use in the treatment of BRAF-mutated cancers” (LES HOPITAUX UNIVERSITAIRES DE GENEVE, priority 2017, dated 2020).

The structures appear in SMILES notation.

For the molecule `NCCC[C@](N)(C(=O)O)C(F)F` [C1, α-difluoromethylornithine], the HuR cytoplasmic content result in the assay with HuR in A375 cells and in the assay with HuR in MALME-3M cells (MALME-3M cells) was “no increase of HuR cytoplasmic content” throughout.
Consider `Cc1cccc(C)c1OCC(=O)N[C@@H](Cc1ccccc1)[C@@H](O)C[C@H](Cc1ccccc1)NC(=O)[C@H](C(C)C)N1CCCNC1=O` [C2, (2S)-N-[(2S,4S,5S)-5-[[2-(2,6-dimethylphenoxy)acetyl]amino]-4-hydroxy-1,6-diphenylhexan-2-yl]-3-methyl-2-(2-oxo-1,3-diazinan-1-yl)butanamide], for which the HuR cytoplasmic content entry in the assay with HuR in A375 cells and in the assay on HuR in MALME-3M cells (MALME-3M cells) was “no increase of HuR cytoplasmic content” throughout.
With `[Cl-].[Li+]` [LiCl, Lithium Chloride], the “total amount of HuR expression (endogenous and exogenous epitope-tagged HuR)” value in assay [1] is “clearly increases the total amount of HuR expression with a dose effect”. Also, the “total amount of HuR expression and HuR cytoplasmic content” value in the assay on HuR in A375 cells (LiCl 1 mM) is “increase of both total amount of HuR expression and HuR cytoplasmic content”; in the assay on HuR in MALME-3M cells (MALME-3M cells, LiCl 1 mM), “increase of both total amount of HuR expression and HuR cytoplasmic content”. Also, the “increased cytoplasmic expression of HuR (ImageJ quantification)” value in the assay with HuR in A375 cells (LiCl 1 mM, 6 h) was determined as 80%; in the assay on HuR in MALME-3M cells (Malme 3M cells, LiCl 1 mM, 24 h), 50%.
As for `CCCS(=O)(=O)Nc1ccc(F)c(C(=O)c2c[nH]c3ncc(-c4ccc(Cl)cc4)cc23)c1F` [vemurafenib, N-{3-[5-(4-chlorophenyl)-1H-pyrrolo[2,3-b]pyridine-3-carbonyl]-2,4-difluorophenyl}propane-1-sulfonamide], the “proliferation rate increase (paradoxical proliferation)” value is given as “up to 50%” in the assay with A375 cells (20 nM vemurafenib) and “up to 25%” with A375 cells (100 nM vemurafenib). Moreover, the vemurafenib-induced paradoxical proliferation result in the assay with A375 cells (aH cells (HuR-overexpressing A375), in contrast to aG or non-infected cells) is reported as “no vemurafenib-induced paradoxical proliferation was observed”. Further, the patients who respond in assay [2] is about 5%.
